Experimental data taken from patent US6107324A, “5-HT2A receptor inverse agonists” (priority 1999, dated 2000).
Substitutions are numbered along the chain they refer to. Like-named read-outs stand apart in the source and are kept apart here. Each block holds one compound with its values, some of them ahead of it.

Legend:
[1] = molecular target: T1, constitutively active mutant human 5HT2C receptor AP-1 (Homo sapiens, UniProt P28335, S310K); test: [35S]GTPγS binding assay, constitutively active mutant human 5HT2C receptor AP-1; type: biochemical
T1 sequence (P28335 33-458 S310K): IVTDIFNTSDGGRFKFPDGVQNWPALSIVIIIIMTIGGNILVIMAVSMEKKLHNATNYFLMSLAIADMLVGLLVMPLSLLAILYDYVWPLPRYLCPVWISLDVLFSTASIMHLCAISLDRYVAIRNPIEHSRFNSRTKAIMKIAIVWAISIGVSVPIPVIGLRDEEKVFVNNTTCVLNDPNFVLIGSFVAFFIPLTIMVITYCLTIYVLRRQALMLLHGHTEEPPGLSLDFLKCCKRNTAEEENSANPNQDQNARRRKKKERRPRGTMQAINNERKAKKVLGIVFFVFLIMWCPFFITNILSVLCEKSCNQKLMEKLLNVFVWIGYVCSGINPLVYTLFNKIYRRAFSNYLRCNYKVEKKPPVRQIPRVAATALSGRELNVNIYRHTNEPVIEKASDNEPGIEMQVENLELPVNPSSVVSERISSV

[2] = test system: human mutated 5HT2A receptor, AP-3; test: Inositol phosphate (IP3) accumulation assay, AP-3; type: cell-based; settings: preferred compounds tables (μM)
[3] = test system: 5HT2A receptor (cerebral cortex); test: I125-LSD displacement from rat brain sections, cerebral cortex (5HT2A); type: binding, Sprague-Dawley rats; settings: 1 micromolar compound, 1 nanomolar I125-LSD, 30 minutes room temperature
[4] = test system: Adult male Sprague-Dawley rats; test: Amphetamine-stimulated locomotor activity in rats; type: in vivo
Excerpt: A 5HT2A receptor antagonist or inverse agonist is expected to decrease amphetamine-stimulated locomotion without affecting baseline locomotion. See, for example, Soresnon, et al, 266(2) J. Pharmacol. Exp. Ther. 684 (1993). […] For the following study, the following parameters and protocol were utilized:
Adult male Sprague-Dawley rats were utilized for these studies. Animals were housed in groups of 2-3 in hanging plastic cages with food and water available at all times. Animals were weighed and handled for at least one day prior to surgery and throughout the studies. For these studies, Vehicle consisted of 90% ethanol (100%) and 10% water.
A San Diego Instruments Flex Field apparatus was used to quantify baseline and amphetamine-stimulated locomotor activity. This apparatus consists of four 16"×16" clear plastic open fields. Photocell arrays (16 in each dimension) interfaced with a personal computer to automatically quantify activity. Several measures of activity can be assessed with the apparatus, including total photocell beam breaks. Animals (vehicle control and Compound treated) were injected s.c. 30 minutes prior to initiation of analysis. Following this 30 minute period, animals were placed individually into an open field and baseline activity was assessed for 30 minutes (habituation phase). […]

[5] = molecular target: T2, endogenous human 5-HT2C receptor (Homo sapiens, UniProt P28335)
T2 sequence (P28335 33-458): T1 sequence (P28335 33-458 S310K) with K278S

[6] = molecular target: T3, Wild Type Human 5HT2A Receptor (Homo sapiens, UniProt P28223); test: [3H]LSD competitive binding assay, wild type 5HT2A
T3 construct: expressed in transfected cells; host or cells: COS-7 cells, transient transfection (pCMV); membranes
T3 sequence (P28223 whole entry T25N/H452Y): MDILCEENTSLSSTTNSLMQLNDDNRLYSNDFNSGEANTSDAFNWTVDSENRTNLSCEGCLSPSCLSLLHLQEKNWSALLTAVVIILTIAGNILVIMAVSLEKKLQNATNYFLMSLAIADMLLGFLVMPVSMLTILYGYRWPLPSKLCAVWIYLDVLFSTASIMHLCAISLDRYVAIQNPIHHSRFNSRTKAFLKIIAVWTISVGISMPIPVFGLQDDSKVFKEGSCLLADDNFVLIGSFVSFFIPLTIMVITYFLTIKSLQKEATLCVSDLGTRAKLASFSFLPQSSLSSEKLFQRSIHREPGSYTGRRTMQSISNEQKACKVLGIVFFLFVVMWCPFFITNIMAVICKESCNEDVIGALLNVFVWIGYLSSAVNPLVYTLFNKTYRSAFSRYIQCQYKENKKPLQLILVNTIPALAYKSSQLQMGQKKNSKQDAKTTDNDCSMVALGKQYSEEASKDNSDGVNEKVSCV

Structure (SMILES): CSc1ccc2c(c1)C(N1CCN(C)CC1)Cc1ccccc1S2 (stereo not shown) [Methiothepin]
IC50 [1]: 0.0204 µM

Structure (SMILES): Clc1ccc2c(c1)N=C(N1CCNCC1)c1ccccc1N2 [Normethylclozapin]
IC50 [1]: 0.0214 µM

Structure (SMILES): Cn1cc(Br)c(-c2cccc(NC(=O)OC(C)(C)C)c2)n1 [Compound 116192]
IC50 [2]: 0.057 µM

Structure (SMILES): COc1ccc(OC(=O)Nc2cccc(-c3nn(C)cc3Br)c2)cc1 [Compound 116100, N-[3-(4-bromo-1-methylpyrazol-3-yl)phenyl][4-methoxyphenoxy]carboxamide]
IC50 [2]: 0.0003 µM
displacement of I125-LSD from cortex [3]: selectively displace the I^125 -LSD from the cortex (5HT2A)

Structure (SMILES): Cn1cc(Br)c(-c2cccc(NC(=O)c3cccs3)c2)n1 [Compound 116102, N-[3-(4-bromo-1-methylpyrazol-3-yl)phenyl][2-thienyl]carboxamide]
amphetamine-stimulated locomotion ([4]; s.c., 0.1, 1.0, 5.0, 10.0 mg/kg, d-amphetamine sulfate 1.0 mg/kg, photobeam breaks): with exception of the highest dose (10 mg/kg), in vivo, the tested doses of Compound 116102 evidenced a decrease in the amphetamine-stimulated locomotion
dose-response pattern of locomotor activity ([4]; s.c., 0.1-10.0 mg/kg, FIGS. 17A-C): "inverted U" shaped pattern

[35S]GTPγS binding, serotonin stimulation and inhibition by mianserin ([1]; FIG. 10, AP-1 receptors in 293T cells, mianserin 30 μM, Wallac scintistrips): inhibition
inhibition of serotonin-stimulated [35S]GTPγS binding ([5]; 30 μM (FIG. 9), FIG. 10 on Wallac scintistrips): inhibits this response
effect on basal constitutive [35S]GTPγS binding ([5]; FIG. 10, membranes expressing endogenous human 5-HT2C receptor): partial inverse agonist
Structure (SMILES): CN1CCN2c3ccccc3Cc3ccccc3C2C1 (stereo not shown) [mianserin]

Structure (SMILES): Cn1cc(Br)c(-c2cccc(NC(=O)Nc3ccc(OC(F)(F)F)cc3)c2)n1 [Compound 103487, N-[3-(4-bromo-1-methylpyrazol-3-yl)phenyl][{(4-trifluoromethoxy)phenyl}amino]carboxamide]
inhibition at 10 µM ([1]; read-out: GTPγS AP-1 Percent Inhibition Relative To Positive Control (Primary)): -1%
inhibition at 10 µM ([1]; read-out: GTPγS AP-1 Percent Inhibition Relative To Positive Control (Reconfirm)): 31%

Structure (SMILES): CC(C)c1ccc(NC(=O)Nc2cccc(-c3nn(C)cc3Br)c2)cc1 [Compound 116110, {[3-(4-bromo-1-methylpyrazol-3-yl)phenyl]amino}-N-[4-(methylethyl)phenyl]carboxamide]
IC50 [6]: 0.338 µM
